Test results: US5023082A, “Sustained-release pharmaceutical compositions” (Yissum Research Development Company of the Hebrew …, priority 1986, dated 1991)

Test: Comparison of release rate of agents/salts from film-like implants
Type: physicochemical
Text: The amount of the pharmacological agent added to the implant will vary, in a manner understood by those of ordinary skill in the art, depending upon such criteria as: […] The above criteria will depend upon such factors as the patient's age, height, weight, sex, medical history, etc. The pharmacological agent must be present in an amount sufficient to impart therapeutic effect to the pharmaceutical composition. The nature of the active agent in the implant also plays an important role in the control release mechanism. […] Different salts of the same active agent may be released at different rates.

Structure (SMILES): N=C(NCCCCCCNC(=N)NC(=N)Nc1ccc(Cl)cc1)NC(=N)Nc1ccc(Cl)cc1 [chlorhexidine acetate]
- Release rate from film-like implant compared with tetracycline HCl (20% w/w per protein, same implant containing 20% w/w tetracycline HCl): more slowly
- Release rate from film-like implants compared with chlorhexidine HCl (same formulation, 20% (w/w) chlorhexidine per protein): more slowly
